Experiments:
[1] = Cytotoxicity against human MT4 cells assessed as cell viability after 5 days by Cell-Titer Glo assay; format: cell-based
[2] = molecular target: DNA-directed RNA polymerase, mitochondrial (Homo sapiens) (UniProt O00411); experiment: Inhibition of human mitochondrial RNA polymerase using 5'-32P-R12/D18 as RNA/DNA template assessed as single nucleotide incorporation rate at 500 uM after 0.17 to 30 mins by PAGE analysis
[3] = Inhibition of RSV A2 RNA-dependent RNA polymerase expressed in human Hep2 cells using ATP, GTP, UTP, CTP and 1.5 uCi [alpha-32P] NTP as substrate assessed as reduction of total radiolabled transcript after 90 mins by agarose gel electrophoresis; set-up: species or system Human respiratory syncytial virus A2; settings: hep-2
[4] = Antiviral activity against RSV A2 infected in human Hep2 cells assessed as protection against virus-induced cytopathic effect after 4 days by Cell-Titer Glo assay; format: functional, cell-based; settings: human respiratory syncytial virus, HEp-2, 96 h
[5] = molecular target: DNA polymerase subunit gamma-1/gamma-2 (Homo sapiens) (UniProt P54098+Q9UHN1); experiment: Inhibition of human mitochondrial DNA polymerase gamma large subunit/DNA polymerase gamma accessory subunit using 32P-D19/D36 as DNA primer/template assessed as single nucleotide incorporation rate at 100 uM after 5 to 90 mins by PAGE analysis relative to thymidine NTP; format: protein assay
DNA polymerase subunit gamma-1/gamma-2 (Homo sapiens), sequence (P54098 whole entry, looked up): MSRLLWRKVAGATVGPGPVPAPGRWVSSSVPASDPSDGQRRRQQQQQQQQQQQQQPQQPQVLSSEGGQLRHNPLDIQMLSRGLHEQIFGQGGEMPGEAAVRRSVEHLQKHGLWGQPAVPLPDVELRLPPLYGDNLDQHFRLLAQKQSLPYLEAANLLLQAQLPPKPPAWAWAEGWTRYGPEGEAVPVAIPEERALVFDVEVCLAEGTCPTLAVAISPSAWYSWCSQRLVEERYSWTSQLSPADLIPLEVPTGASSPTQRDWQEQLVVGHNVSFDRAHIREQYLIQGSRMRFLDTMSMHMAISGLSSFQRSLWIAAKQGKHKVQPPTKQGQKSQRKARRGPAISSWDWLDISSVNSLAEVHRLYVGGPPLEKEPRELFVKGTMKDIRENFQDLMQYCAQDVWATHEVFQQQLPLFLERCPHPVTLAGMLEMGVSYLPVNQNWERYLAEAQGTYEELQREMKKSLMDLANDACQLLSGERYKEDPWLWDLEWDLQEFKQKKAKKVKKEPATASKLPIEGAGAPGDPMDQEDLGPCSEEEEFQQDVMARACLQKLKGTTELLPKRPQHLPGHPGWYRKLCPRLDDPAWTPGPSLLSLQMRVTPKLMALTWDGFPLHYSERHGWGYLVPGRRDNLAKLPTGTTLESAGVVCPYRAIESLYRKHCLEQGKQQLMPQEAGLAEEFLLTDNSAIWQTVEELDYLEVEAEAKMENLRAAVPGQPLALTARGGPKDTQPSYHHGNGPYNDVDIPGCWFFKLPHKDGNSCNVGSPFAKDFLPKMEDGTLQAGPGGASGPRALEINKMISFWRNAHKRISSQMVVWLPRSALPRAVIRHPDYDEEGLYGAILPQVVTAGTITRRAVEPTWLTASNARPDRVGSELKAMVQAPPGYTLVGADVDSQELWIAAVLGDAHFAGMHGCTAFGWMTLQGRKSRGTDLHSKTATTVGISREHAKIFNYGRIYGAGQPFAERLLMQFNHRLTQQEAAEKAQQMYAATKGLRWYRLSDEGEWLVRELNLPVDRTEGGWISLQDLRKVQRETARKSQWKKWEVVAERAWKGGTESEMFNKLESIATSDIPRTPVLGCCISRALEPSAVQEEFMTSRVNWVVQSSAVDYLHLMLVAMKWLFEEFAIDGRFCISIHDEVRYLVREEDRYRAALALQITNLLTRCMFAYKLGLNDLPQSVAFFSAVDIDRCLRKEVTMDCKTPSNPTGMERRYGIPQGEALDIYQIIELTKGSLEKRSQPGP
DNA polymerase subunit gamma-1/gamma-2 (Homo sapiens), sequence (Q9UHN1 whole entry, looked up): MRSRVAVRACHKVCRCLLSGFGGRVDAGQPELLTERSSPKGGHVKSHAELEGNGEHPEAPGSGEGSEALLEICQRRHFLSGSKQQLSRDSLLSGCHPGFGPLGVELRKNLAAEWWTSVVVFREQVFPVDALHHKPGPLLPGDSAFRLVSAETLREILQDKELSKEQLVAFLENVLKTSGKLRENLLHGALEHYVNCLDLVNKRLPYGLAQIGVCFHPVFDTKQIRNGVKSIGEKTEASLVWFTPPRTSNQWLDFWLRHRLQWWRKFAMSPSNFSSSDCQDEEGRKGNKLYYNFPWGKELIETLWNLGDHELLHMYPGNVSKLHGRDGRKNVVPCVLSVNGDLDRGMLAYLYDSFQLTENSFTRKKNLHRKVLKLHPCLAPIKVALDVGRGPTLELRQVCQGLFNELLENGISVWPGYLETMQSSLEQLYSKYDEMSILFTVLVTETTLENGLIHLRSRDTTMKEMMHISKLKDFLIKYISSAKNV

DNA-directed RNA polymerase, mitochondrial (Homo sapiens), sequence (O00411 whole entry): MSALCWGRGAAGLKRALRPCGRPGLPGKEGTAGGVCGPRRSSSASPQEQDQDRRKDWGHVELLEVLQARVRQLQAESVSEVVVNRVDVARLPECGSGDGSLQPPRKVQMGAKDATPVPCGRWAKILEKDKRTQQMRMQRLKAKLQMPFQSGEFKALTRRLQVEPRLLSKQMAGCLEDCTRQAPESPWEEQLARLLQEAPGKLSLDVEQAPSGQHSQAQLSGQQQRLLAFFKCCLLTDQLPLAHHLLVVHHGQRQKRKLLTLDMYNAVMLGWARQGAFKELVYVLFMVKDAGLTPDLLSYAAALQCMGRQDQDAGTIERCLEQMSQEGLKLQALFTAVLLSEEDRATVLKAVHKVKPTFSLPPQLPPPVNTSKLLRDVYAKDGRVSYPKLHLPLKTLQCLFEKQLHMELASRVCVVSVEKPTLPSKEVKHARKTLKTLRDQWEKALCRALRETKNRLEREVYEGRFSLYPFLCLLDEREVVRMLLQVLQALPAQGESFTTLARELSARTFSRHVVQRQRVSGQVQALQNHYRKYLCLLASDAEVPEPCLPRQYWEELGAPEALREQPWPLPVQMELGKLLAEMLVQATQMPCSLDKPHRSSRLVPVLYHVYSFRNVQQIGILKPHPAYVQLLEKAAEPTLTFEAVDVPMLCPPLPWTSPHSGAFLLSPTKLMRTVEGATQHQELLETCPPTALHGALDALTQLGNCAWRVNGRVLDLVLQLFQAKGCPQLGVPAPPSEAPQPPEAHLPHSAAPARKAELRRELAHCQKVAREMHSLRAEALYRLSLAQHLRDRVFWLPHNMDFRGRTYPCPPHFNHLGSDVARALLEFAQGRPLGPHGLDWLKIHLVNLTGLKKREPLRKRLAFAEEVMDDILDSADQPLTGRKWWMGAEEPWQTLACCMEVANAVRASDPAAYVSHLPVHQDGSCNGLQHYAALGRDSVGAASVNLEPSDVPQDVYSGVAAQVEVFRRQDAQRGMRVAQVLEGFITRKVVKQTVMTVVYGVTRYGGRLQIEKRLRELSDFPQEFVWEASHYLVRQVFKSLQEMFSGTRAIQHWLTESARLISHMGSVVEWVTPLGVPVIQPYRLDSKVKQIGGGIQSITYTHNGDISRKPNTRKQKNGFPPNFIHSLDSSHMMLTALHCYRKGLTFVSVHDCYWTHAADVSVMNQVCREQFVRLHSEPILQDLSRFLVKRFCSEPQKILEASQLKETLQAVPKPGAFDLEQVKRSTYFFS

| Compound | inhibition [2] [%] | IC50 [3] [µM] | inhibition [5] [%] | CC50 at 120 h [1] [µM] | EC50 [4] [µM] |
| --- | --- | --- | --- | --- | --- |
| Nc1ccn([C@@H]2O[C@@](CO)(CCl)[C@@H](O)[C@H]2F)c(=O)n1 [ALS-8112] | 0 | 1 | 41 | 21 | 0.92 |
| CC[C@]1(CO)O[C@@H](n2ccc(N)nc2=O)[C@H](F)[C@@H]1O | 0 | 0.6 | 6 | > 57 | 8 |
| N#C[C@]1(CO)O[C@@H](n2cnc3c(=O)[nH]c(N)nc32)[C@H](F)[C@@H]1O | 0 | 2.6 | 3 | 24 | 10 |
| CC[C@]1(CO)O[C@@H](c2ccc3c(N)ncnn23)[C@H](F)[C@@H]1O | 0.1 | 0.5 | 5.7 | > 114 | 41 |
| N#C[C@]1(CO)O[C@@H](c2ccc3c(N)ncnn23)[C@H](F)[C@@H]1O | < 0.1 | 0.086 | < 0.1 | > 114 | 2 |
| O=c1ccn([C@@H]2O[C@H](CO)[C@@H](O)[C@H]2F)c(=O)[nH]1 | 37 | 3.5 | 11 |  | > 100 |
| Nc1nc2c(ncn2[C@@H]2O[C@H](CO)[C@@H](O)[C@H]2F)c(=O)[nH]1 |  |  |  | > 49 |  |
| Nc1ncnn2c([C@@H]3O[C@H](CO)[C@@H](O)[C@H]3F)ccc12 | 22 | 0.6 | 2.5 | 26 | > 100 |
| O=c1[nH]c(=O)n([C@@H]2O[C@H](CO)[C@@H](O)[C@@H]2F)cc1I |  |  | 99 |  |  |
| C#C[C@]1(CO)O[C@@H](n2cnc3c(=O)[nH]c(N)nc32)[C@H](F)[C@@H]1O | 18 | 1.8 | 5 | 39 | 26 |

The next lines start with results.

| inhibition [2] [%] | IC50 [3] [µM] | inhibition [5] [%] | Compound | CC50 at 120 h [1] [µM] | EC50 [4] [µM] |
| --- | --- | --- | --- | --- | --- |
| 20 | 1.8 | 17 | Nc1ccn([C@@H]2O[C@H](CO)[C@@H](O)[C@H]2F)c(=O)n1 | 3.8 | > 200 |
| 1 | 12 | 1 | C=C[C@]1(CO)O[C@@H](n2cnc3c(=O)[nH]c(N)nc32)[C@H](F)[C@@H]1O | 46 | 17 |
| 3 | 0.3 | 7 | [N-]=[N+]=N[C@]1(CO)O[C@@H](n2ccc(N)nc2=O)[C@H](F)[C@@H]1O | 23 | 3.5 |
| 24 | 7.7 | 8 | Nc1ncnc2c1ncn2[C@@H]1O[C@H](CO)[C@@H](O)[C@H]1F [2'-BETA-FLUORO-2',3'-DEOXYADENOSINE] |  | > 50 |
| 21 | 6.6 | 34 | Nc1nc(O)c2ncn([C@@H]3O[C@H](CO)[C@@H](O)[C@H]3F)c2n1 |  | > 200 |
| 112 |  |  | CC(C)C(=O)OC[C@@]1(N=[N+]=[N-])O[C@@H](n2ccc(N)nc2=O)[C@H](OC(=O)C(C)C)[C@@H]1OC(=O)C(C)C |  |  |
| 2.9 | 0.6 | 10 | C=C[C@]1(CO)O[C@@H](c2ccc3c(N)ncnn23)[C@H](F)[C@@H]1O | > 114 | 10 |
| 1.2 | 0.6 | 4.9 | C=C[C@]1(CO)O[C@@H](n2ccc(N)nc2=O)[C@H](F)[C@@H]1O | > 57 | > 50 |
